Results from US5013719A, “Method of effecting immunosuppression” (Merrell Dow Pharmaceuticals Inc., priority 1988, dated 1991).

System: cytolytic T lymphocyte induction (51Cr labeled P815 target cells)
Assay: Cytolytic T-lymphocyte induction in vivo (splenic cytolytic activity, 4-hour 51Cr release assay)
Set-up: species or system C57BL/6 mice
Details: DFMO 2% in drinking water from day 1; splenic CTL activity day 10; vs vehicle treated control
Description: Alloreactive cytolytic T-lymphocytes (CTL) are generated in vivo by injecting C57BL/6 mice intraperitoneally with allogenic P815 (H-2^d) cells (10^7) on day 0.
Splenic cytolytic activity, which represents a direct measurement of immune response, is assessed by a 4-hour ^51 Cr release assay as described by Bowlin et al., Cell. […] Effector cells are characterized as T-cells based on surface phenotype (Thy 1.2^+, Lyt 2.2^+, L3T4^-) and allo-specificity (H-^2 d) as described by Bowlin et al., Cell Immunnol.
^a C57BL/6 mice were injected with allogeneic P815 cells on day 0.
DFMO was administered continuously, starting on day 1, in drinking water.
^b Splenic cytolytic T lymphocyte activity was assessed on day 10
utilizing ^51 Cr labeled P815 target cells. Data is expressed as %
inhibition compared with vehicle treated control.

## NCCC[C@](N)(C(=O)O)C(F)F [DFMO, α-difluoromethylornithine]
  Cytolytic T Lymphocyte Induction % Inhibition (mean ± S.E., n = 3): 10 ± 0.5%
